Experimental data reported in ChEMBL document CHEMBL1135872, “Oxyaniliniums as acetylcholinesterase inhibitors for the reversal of neuromuscular block” (Bioorg Med Chem Lett, 2002).

What was measured:
Cavia porcellus = species on record: Cavia porcellus; experiment: In vitro potency in reversing vecuronium-induced block in guinea pig hemidiaphram; type: functional
Felis catus [1] = experiment: Tested for change in heart rate at dose of 1.026 umol/kg in cat; type: functional
Felis catus [2] = experiment: Tested for change in LV dp/dt at dose of 1.026 umol/kg in cat; type: functional
Felis catus [3] = experiment: Tested for change in arterial pressure at dose of 1.026 umol/kg in cat; type: functional, Artery
Felis catus [4] = experiment: Tested for change in LV pressure at dose of 1.026 umol/kg in cat; type: functional
Felis catus [5] = experiment: Tested for effect on autonomic vagal membrane at dose of 1.026 umol/kg in cat; type: functional
Felis catus [6] = experiment: Tested for effect on nictitating membrane at dose of 1.026 umol/kg in cat; type: functional
Acetylcholinesterase = Acetylcholinesterase (Homo sapiens, UniProt P22303); experiment: In vitro inhibitory activity against human recombinant AChE
Felis catus [7] = experiment: Tested for change in LV pressure at dose of 0.076 umol/kg in cat; type: functional
Felis catus [8] = experiment: Tested for effect on nictitating membrane at dose of 0.076 umol/kg in cat; type: functional
Felis catus [9] = experiment: Tested for effect on autonomic vagal membrane at dose of 0.076 umol/kg in cat; type: functional
Felis catus [10] = experiment: Tested for change in heart rate at dose of 0.076 umol/kg in cat; type: functional
Felis catus [11] = experiment: Tested for change in LV dp/dt at dose of 0.076 umol/kg in cat; type: functional
Felis catus [12] = experiment: Tested for change in arterial pressure at dose of 0.076 umol/kg in cat; type: functional, Artery
Felis catus [13] = experiment: Tested for change in heart rate at dose of 2.1 umol/kg in cat; type: functional
Felis catus [14] = experiment: Tested for change in LV dp/dt at dose of 2.1 umol/kg in cat; type: functional
Felis catus [15] = experiment: Tested for change in LV pressure at dose of 2.1 umol/kg in cat; type: functional
Felis catus [16] = experiment: Tested for effect on nictitating membrane at dose of 2.1 umol/kg in cat; type: functional
Felis catus [17] = experiment: Tested for change in arterial pressure at dose of 2.1 umol/kg in cat; type: functional, Artery
Felis catus [18] = experiment: Tested for effect on autonomic vagal membrane at dose of 2.1 umol/kg in cat; type: functional
Felis catus [19] = species on record: Felis catus; experiment: Effective dose required to reverse vecuronium-induced neuromuscular block in cat; type: functional
Felis catus [20] = experiment: Tested for change in LV pressure at dose of 1.28 umol/kg in cat; type: functional
Felis catus [21] = experiment: Tested for change in arterial pressure at dose of 1.28 umol/kg in cat; type: functional, Artery
Felis catus [22] = experiment: Tested for effect on autonomic vagal membrane at dose of 1.28 umol/kg in cat; type: functional
Felis catus [23] = experiment: Tested for effect on nictitating membrane at dose of 1.28 umol/kg in cat; type: functional
Felis catus [24] = experiment: Tested for change in heart rate at dose of 1.28 umol/kg in cat; type: functional
Felis catus [25] = experiment: Tested for change in LV dp/dt at dose of 1.28 umol/kg in cat; type: functional
Felis catus [26] = experiment: Tested for effect on nictitating membrane at dose of 2.56 umol/kg in cat; type: functional
Felis catus [27] = experiment: Tested for change in arterial pressure at dose of 2.56 umol/kg in cat; type: functional, Artery
Felis catus [28] = experiment: Tested for change in LV dp/dt at dose of 2.56 umol/kg in cat; type: functional
Felis catus [29] = experiment: Tested for effect on autonomic vagal membrane at dose of 2.56 umol/kg in cat; type: functional
Felis catus [30] = experiment: Tested for change in heart rate at dose of 2.56 umol/kg in cat; type: functional
Felis catus [31] = experiment: Tested for change in LV pressure at dose of 2.56 umol/kg in cat; type: functional

Sequence of Acetylcholinesterase (P22303 whole entry): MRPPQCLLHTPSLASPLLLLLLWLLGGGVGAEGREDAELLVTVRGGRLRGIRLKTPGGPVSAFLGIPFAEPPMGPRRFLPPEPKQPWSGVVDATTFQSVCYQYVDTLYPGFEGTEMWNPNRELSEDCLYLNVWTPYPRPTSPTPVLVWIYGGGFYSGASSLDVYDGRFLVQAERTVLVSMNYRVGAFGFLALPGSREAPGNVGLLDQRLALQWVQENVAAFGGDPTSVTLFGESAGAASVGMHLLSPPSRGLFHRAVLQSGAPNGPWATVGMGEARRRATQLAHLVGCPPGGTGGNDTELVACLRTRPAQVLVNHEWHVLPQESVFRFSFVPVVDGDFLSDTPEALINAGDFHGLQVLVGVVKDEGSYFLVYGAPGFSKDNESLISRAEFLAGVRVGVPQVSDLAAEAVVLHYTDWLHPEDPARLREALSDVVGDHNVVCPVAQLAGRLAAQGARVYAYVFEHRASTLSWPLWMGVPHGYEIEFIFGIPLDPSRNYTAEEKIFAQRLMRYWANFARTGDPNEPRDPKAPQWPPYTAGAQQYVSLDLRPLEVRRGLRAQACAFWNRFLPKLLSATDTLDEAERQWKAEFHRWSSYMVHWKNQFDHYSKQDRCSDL

Row | SMILES | IC50 (Cavia porcellus) [µM] | IC50 (Acetylcholinesterase) [µM] | other results
1 | CC[N+](C)(C)c1cccc(O)c1.[Br-] [EDROPHONIUM BROMIDE] | 2.77 | – | Change (Felis catus [1]): 2%; Change (Felis catus [2]): 20%; Change (Felis catus [3]): 22%; Change (Felis catus [4]): 23%; Change (Felis catus [5]): -67%; Change (Felis catus [6]): 7%
2 | C=C(C)C[N+](C)(C)c1cccc(OC)c1 | > 3 | > 10 | –
3 | COc1ccc(C(=O)CCc2cccc([N+](C)(C)Cc3ccccc3)c2)cc1OC | > 3 | 1.04 | –
4 | CN(C)C(=O)Oc1cccc([N+](C)(C)C)c1.[Br-] [NEOSTIGMINE BROMIDE] | 0.028 | – | Change (Felis catus [7]): -14%; Change (Felis catus [8]): 6%; Change (Felis catus [9]): 62%; Change (Felis catus [10]): 4%; Change (Felis catus [11]): 12%; Change (Felis catus [12]): 22%
5 | C=CC[N+](C)(C)c1ccc(OC)cc1 | > 3 | > 10 | –
6 | C=CC[N+](C)(C)c1ccc(OC(C)=O)cc1 | > 3 | > 10 | –
7 | COc1ccc(C(=O)COc2ccc([N+](C)(C)Cc3ccccc3)cc2)cc1OC | 19.4 | 10 | –
8 | COc1ccc(C(=O)COc2cccc([N+](C)(C)C)c2)cc1OC | 7.08 | 10 | –
9 | COc1ccc([N+](C)(C)Cc2ccccc2)cc1 | > 3 | > 10 | –
10 | COc1ccc(C(=O)CCc2ccc([N+](C)(C)Cc3ccccc3)cc2)cc1OC | 4.11 | 1.3 | –
11 | C=CC[N+](C)(C)c1cccc(OC)c1 | > 3 | > 10 | –
12 | CC(=O)Oc1ccc([N+](C)(C)Cc2ccccc2)cc1 | > 3 | > 10 | –
13 | C=CC[N+](C)(C)Cc1cccc(O)c1 | > 3 | > 10 | –
14 | C=C(C)C[N+](C)(C)c1ccccc1OC | > 3 | > 10 | –
15 | C=CCC[N+](C)(C)c1ccccc1O | > 10 | 10 | –
16 | COc1ccc(C(=O)CCc2cccc([N+](C)(C)C)c2)cc1OC | – | > 10 | –
17 | C=C(C)C[N+](C)(C)c1cccc(O)c1 | > 3 | > 10 | –
18 | C[N+](C)(Cc1ccccc1)c1cccc(O)c1 | > 3 | > 10 | –
19 | COc1cccc(C[N+](C)(C)C)c1 | – | > 10 | –
20 | CC(=O)Oc1cccc([N+](C)(C)Cc2ccccc2)c1 | > 3 | > 10 | –

Row | SMILES | IC50 (Cavia porcellus) [µM] | IC50 (Acetylcholinesterase) [µM] | other results
21 | C=CC[N+](C)(C)Cc1cccc(OC)c1 | > 3 | > 10 | –
22 | C=CC[N+](C)(C)c1ccccc1O.[Br-] | 74 | 1.85 | Change (Felis catus [13]): 1%; Change (Felis catus [14]): 8%; Change (Felis catus [15]): 12%; Change (Felis catus [16]): 5%; Change (Felis catus [17]): 2%; Change (Felis catus [18]): 5%; ED50 (Felis catus [19]): 0.5 µmol/kg
23 | C=CC[N+](C)(C)c1cccc(OC(C)=O)c1 | 3.87 | 1 | –
24 | C=CC[N+](C)(C)c1ccccc1OC.[Br-] | 2.89 | 1 | Change (Felis catus [20]): 9%; Change (Felis catus [21]): 24%; Change (Felis catus [22]): 41%; ED50 (Felis catus [19]): 0.22 µmol/kg; Change (Felis catus [23]): 2%; Change (Felis catus [24]): 2%; Change (Felis catus [25]): 9%
25 | C=CC[N+](C)(C)c1cccc(O)c1 | 13 | 3 | –
26 | COc1cccc([N+](C)(C)Cc2ccccc2)c1 | > 3 | > 10 | –
27 | C=CC[N+](C)(C)c1ccc(O)cc1 | > 3 | > 10 | –
28 | COc1ccc(C(=O)CCc2ccc([N+](C)(C)C)cc2)cc1OC | 2 | 3 | –
29 | C=C(C)C[N+](C)(C)c1ccccc1O | > 3 | > 10 | –
30 | C[N+](C)(C)Cc1cccc(O)c1 | > 3 | > 10 | –
31 | C[N+](C)(Cc1ccccc1)c1ccccc1O | > 3 | > 10 | –
32 | COc1ccccc1[N+](C)(C)Cc1ccccc1 | > 3 | > 10 | –
33 | COc1ccc(C(=O)COc2ccc([N+](C)(C)C)cc2)cc1OC | 9.8 | 10 | –
34 | C=C(C)C[N+](C)(C)c1ccc(O)cc1 | > 3 | > 10 | –
35 | COc1cccc(C[N+](C)(C)Cc2ccccc2)c1 | – | > 10 | –
36 | C[N+](C)(Cc1ccccc1)Cc1cccc(O)c1 | – | > 10 | –
37 | COc1ccc(C(=O)COc2cccc([N+](C)(C)Cc3ccccc3)c2)cc1OC.[Br-] | 1.69 | 0.33 | Change (Felis catus [26]): 34%; Change (Felis catus [27]): 56%; Change (Felis catus [28]): 82%; Change (Felis catus [29]): 5%; Change (Felis catus [30]): 8%; Change (Felis catus [31]): 63%
38 | CC(=O)Oc1ccccc1[N+](C)(C)Cc1ccccc1 | > 3 | > 10 | –
39 | C=CC[N+](C)(C)c1ccc(OCC(=O)c2ccc(OC)c(OC)c2)cc1 | 0.5 | 10 | –
40 | C[N+](C)(Cc1ccccc1)c1ccc(O)cc1 | > 3 | > 10 | –
